How the values were obtained:
[1] = system: wheat speckled leaf blotch fungus (Septoria tritici); test: Test Example 5: wheat speckled leaf blotch, foliar spray pot test; assay type: in vivo; details: wheat (Apogee), 500 ppm foliar spray, Formulation Example 6, inoculated after 4 days
[2] = system: soybean rust (Phakopsora pachyrhizi); test: Test Example 7: soybean rust, foliar spray pot test; assay type: in vivo; details: soybean (Kurosengoku), 200 ppm foliar spray, Formulation Example 6, inoculated after 4 days

Row | SMILES | area of the lesion on treated plant relative to untreated plant [1] | area of the lesion on treated plant relative to untreated plant [2]
1 | COC(=O)N(OC)c1ccccc1COc1ccc(-n2nc(C)cc2C)cc1C [methyl N-(2-{[2-methyl-4-(3,5-dimethyl-1H-pyrazol-1-yl)phenoxy]methyl}phenyl)-N-methoxy carbamate] | ≥ 70% | –
2 | COC(=O)Nc1ccccc1COc1ccc(-n2cccn2)cc1 [methyl N-(2-{[4-(1H-pyrazol-1-yl)phenoxy)methyl}phenyl)carbamate] | – | ≥ 70%

— patent publication US10196362B2, “Carbamate compound and use thereof” (SUMITOMO CHEMICAL COMPANY, LIMITED, priority 2015, dated 2019)
